The source of these data is article PMC6649263 (ACS Omega, 2019).

Where only a bound is given, the exact number is not on record here.

What all share (assay type): biochemical
In one experiment the target is horse serum BChE (Equus caballus, UniProt P81908). Description: Cholinesterase enzyme inhibition assay.
In another experiment the target is electric eel AChE (Electrophorus electricus, UniProt O42275). Description: Cholinesterase enzyme inhibition assay.
The target of the next experiment is hGSK-3β (Homo sapiens, UniProt P49841). As to the kind of experiment: GSK-3β Kinase-Glo enzyme inhibition assay, with enzyme kinetics. (In general: Kinase-Glo measures the ATP left after a reaction by luminescence.)
Chain of hGSK-3β (P49841 whole entry): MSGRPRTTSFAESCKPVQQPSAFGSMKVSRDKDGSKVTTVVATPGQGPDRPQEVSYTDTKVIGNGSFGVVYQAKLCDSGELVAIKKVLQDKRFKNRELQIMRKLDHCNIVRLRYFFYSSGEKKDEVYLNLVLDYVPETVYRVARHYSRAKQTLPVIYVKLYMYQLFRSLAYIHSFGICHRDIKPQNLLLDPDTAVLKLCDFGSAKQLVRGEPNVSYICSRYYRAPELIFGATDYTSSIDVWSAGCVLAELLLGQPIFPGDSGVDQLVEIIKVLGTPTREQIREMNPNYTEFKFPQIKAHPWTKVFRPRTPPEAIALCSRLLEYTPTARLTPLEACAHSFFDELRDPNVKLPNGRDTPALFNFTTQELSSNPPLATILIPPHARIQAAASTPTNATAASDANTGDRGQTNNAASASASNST
Experiment [1] concerns the target human recombinant β-secretase (BACE1) (Homo sapiens, UniProt P56817). Description: BACE1 FRET enzyme inhibition assay, with enzyme kinetics. Conditions: IC50 BACE1, mean ± SD, triplicate.

Chain of horse serum BChE (P81908 whole entry): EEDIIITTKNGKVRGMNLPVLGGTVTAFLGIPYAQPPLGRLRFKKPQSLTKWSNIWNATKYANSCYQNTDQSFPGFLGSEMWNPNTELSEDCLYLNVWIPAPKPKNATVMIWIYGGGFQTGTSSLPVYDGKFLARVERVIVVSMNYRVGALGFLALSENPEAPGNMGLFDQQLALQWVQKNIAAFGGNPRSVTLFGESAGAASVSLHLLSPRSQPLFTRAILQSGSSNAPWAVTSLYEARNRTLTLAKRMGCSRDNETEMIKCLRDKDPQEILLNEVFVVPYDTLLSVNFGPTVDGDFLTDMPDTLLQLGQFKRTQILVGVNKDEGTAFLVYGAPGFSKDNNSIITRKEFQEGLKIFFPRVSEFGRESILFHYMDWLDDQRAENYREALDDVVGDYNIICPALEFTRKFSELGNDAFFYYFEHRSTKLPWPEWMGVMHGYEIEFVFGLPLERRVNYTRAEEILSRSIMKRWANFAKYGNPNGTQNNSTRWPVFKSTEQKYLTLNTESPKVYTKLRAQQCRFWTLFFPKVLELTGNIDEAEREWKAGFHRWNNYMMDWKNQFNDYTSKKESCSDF
Chain of electric eel AChE (O42275 24-633): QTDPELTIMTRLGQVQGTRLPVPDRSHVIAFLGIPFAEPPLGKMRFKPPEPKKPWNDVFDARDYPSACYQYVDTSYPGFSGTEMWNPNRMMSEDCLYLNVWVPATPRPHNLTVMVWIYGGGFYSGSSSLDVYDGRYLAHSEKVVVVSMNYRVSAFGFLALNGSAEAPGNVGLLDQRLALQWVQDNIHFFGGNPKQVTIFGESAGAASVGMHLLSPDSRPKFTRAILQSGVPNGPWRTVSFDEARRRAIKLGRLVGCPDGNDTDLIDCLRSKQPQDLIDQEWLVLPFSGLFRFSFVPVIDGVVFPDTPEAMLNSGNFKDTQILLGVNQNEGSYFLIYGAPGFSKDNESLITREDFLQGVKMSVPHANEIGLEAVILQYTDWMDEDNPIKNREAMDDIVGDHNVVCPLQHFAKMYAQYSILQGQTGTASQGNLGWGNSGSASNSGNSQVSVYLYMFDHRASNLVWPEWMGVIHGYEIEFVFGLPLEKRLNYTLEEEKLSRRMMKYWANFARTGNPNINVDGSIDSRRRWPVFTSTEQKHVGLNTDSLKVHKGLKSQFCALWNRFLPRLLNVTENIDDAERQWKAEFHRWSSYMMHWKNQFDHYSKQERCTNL
Chain of human recombinant β-secretase (BACE1) (P56817 46-501): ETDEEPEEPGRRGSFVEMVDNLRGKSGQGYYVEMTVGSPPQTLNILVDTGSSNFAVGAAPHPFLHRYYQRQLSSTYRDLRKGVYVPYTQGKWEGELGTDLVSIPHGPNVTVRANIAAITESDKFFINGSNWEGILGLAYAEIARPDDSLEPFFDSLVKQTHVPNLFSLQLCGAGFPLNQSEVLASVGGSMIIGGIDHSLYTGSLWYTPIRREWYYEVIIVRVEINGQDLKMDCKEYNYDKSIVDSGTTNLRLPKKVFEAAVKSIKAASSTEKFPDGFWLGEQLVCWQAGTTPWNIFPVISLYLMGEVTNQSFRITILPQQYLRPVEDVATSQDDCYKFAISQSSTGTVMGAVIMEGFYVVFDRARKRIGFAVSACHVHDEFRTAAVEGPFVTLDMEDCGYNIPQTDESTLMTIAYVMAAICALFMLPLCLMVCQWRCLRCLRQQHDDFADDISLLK

As usually defined, the IC50 is the concentration that inhibits the measured activity by half. As for `CC(C)=CCC/C(C)=C/Cc1c(O)ccc2cc(-c3cc(O)cc(O)c3CC=C(C)C)oc12` [mulberrofuran D (1), mulberrofuran D], the IC50 against horse serum BChE was 6.12 ± 1.41 µM; at electric eel AChE it was 23 ± 1.15 µM; against hGSK-3β it was 8.12 ± 0.66 µM.

For the compound `C[C@@]12C=C(c3c(O)cc(-c4cc5ccc(O)cc5o4)cc3O)C[C@@H](C1)c1ccc(O)cc1O2` [mulberrofuran H (3), mulberrofuran H], the IC50 was 64.5 ± 3.1 µM at horse serum BChE, 1.04 ± 0.78 µM in experiment [1], greater than 200 µM at electric eel AChE and 4.41 ± 0.3 µM against hGSK-3β.
